Measured values taken from patent publication US5661182A, “Method for lowering oxygen affinity of hemoglobin in redcell suspensions, in whole blood and in vivo” (Virginia Commonwealth University, priority 1995, dated 1997).
“Also recorded” adds a separate entry of the source.

Assays:
[1] = test system: HbA/Yakima red blood cells; assay: Calculated oxygen delivery index of HbA/Yakima red blood cells (ΔY); assay type: cell-based, human; conditions: for ΔY (oxygen delivery index): HbA/Yakima RBC, 0.5 mM
Protocol: Human blood was collected on heparin from healthy nonsmoking donors. Bovine blood was provided by Pr Delpech, INA (Paris-Grignon). Red blood cells were washed three times in isotonic buffer, kept at 4° C., and used within 24 h after sampling. Hemoglobin Yakima, a high-oxygen-affinity variant [α2 β2 99 (G1) Asp>>His], was obtained from a known heterozygous carrier. Fresh Yakima red cells were processed in the same way as described above.
In Vivo Estimates for Percent of Oxygen Delivery. Table 4 presents the calculated oxygen delivery index for red blood cell suspensions in the presence or absence of 0.5 mM L3,5 or RSR-4. The experimental conditions for the experiments of Table 4 were the same as those used for Table 1. The oxygen delivery index was calculated from the experimental oxygen binding curves as the difference in hemoglobin oxygen saturation (percent) corresponding to the pO2 in the arterial blood (90 mmHg) and that in the mixed venous blood (40 mMHg). HbA/Yakima red blood cells were obtained from a heterozygous carrier of the high-affinity Hb variant.

[2] = test system: rat erythrocytes; assay: Hemolysis of rat erythrocytes
[3] = test system: bovine red cells; assay: Hemolysis of bovine red cells in vitro; assay type: cell-based
[4] = biological target: stored human RBCs (Homo sapiens, UniProt P68871+P69905); assay: Outdated blood studies: oxygen dissociation curves of stored red blood cells; assay type: cell-based; conditions: for p50 / ΔY [Y(90%)-Y(40%)]: 40-day-old stored human RBCs
Protocol: Outdated Blood Studies. For the outdated blood studies, 40-day-old packed red cells (80% hematocrit) were obtained from the blood bank at the Medical College of Virginia, Richmond, Va. The cells had been stored in Adsol formulation at 1°-4° C., pH 6.84. Fresh red cells obtained from volunteers were used for the control studies in Table III. The fresh red blood cells were centrifuged and washed with saline, pH 6.8. The oxygen dissociation curves were recorded on an Aminco Hem-O-Scan (Travenol Laboratories).
Outdated Blood Studies. The capability of RSR-13 to restore the oxygen affinity of stored blood was investigated. The procedure involved measurement of the oxygen equilibrium curves on red cell suspensions, which were stored in Adsol formulations at 4° C., in either the absence (controls) or presence of RSR-13. Table 3 presents the p50 (mmHg) and ΔY (%) [Y(90%)-Y(40%)] for outdated red blood cell suspensions (forty days) in the presence or absence of RSR-13.

Sequence of stored human RBCs (P69905 whole entry): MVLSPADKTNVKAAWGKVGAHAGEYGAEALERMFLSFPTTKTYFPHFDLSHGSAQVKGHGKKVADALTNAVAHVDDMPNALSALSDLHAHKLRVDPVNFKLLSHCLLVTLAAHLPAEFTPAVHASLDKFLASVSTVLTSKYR
Sequence of stored human RBCs (P68871 whole entry): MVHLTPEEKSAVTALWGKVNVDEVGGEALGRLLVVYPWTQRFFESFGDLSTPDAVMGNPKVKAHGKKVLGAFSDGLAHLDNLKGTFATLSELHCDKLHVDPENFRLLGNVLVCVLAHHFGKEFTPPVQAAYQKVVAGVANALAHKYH

## CC(C)(Oc1ccc(CC(=O)Nc2cc(Cl)cc(Cl)c2)cc1)C(=O)O [RSR-4, 2-[4-[[(3,5-dichloroanilino)carbonyl]methyl]phenoxy]-2-methylpropionic acid]
[1]; 50 μM HSA
  ΔY (oxygen delivery index): 19%
[1]; no HSA
  ΔY (oxygen delivery index): 22%
[1]; red cells containing 47% Hb Yakima
  oxygen delivery restoration: able to restore an almost normal oxygen delivery; also recorded: almost normal oxygen delivery index
[2]
  hemolysis: Significant hemolysis
[3]
  hemolysis: No hemolysis

## Cc1cc(C)cc(NC(=O)Cc2ccc(OC(C)(C)C(=O)O)cc2)c1 [RSR-13]
[4]; 4 mM
  pH of RBC solution versus untreated samples: higher than that of untreated samples
[4]; 40-day-old RBC, 1 mM, or added prior to measurements or during storage
  restoration / preservation of oxygen transport capabilities: able to restore, to near normal the oxygen transport capabilities (p50 and ΔY) of 40-day-old red blood cells; also recorded: preserved the oxygen delivery capabilities of red cell hemoglobin
[4]; 1 mM
  p50: 39 mm Hg
  ΔY [Y(90%)-Y(40%)]: 37%
[4]; 2 mM
  p50: 45 mm Hg
  ΔY [Y(90%)-Y(40%)]: 40%
[4]; stored human red cells, end of experiments
  hemolysis: no indication of hemolysis
